In BindingDB's records for patent US11981680 (Bristol Myers Squibb, 2024):

Molecular target: Protein-arginine deiminase type-4 (Homo sapiens, UniProt Q9UM07)
Assay: RFMS Human PAD4 Functional Assay
Experimental: Compounds were solubilized in 100% DMSO to achieve a10 mM compound concentration. Compound stock solutions were stored at RT. A series of dilutions were prepared in DMSO and mixed 8 times with 20 μL mixing volume. Final top concentration of compound in the assay is 50 μM. Final assay conditions were as follows:Reaction volume: 26 μlAssay buffer: 25 mM hepes, pH 7.5, 5 mM NaCl, 1 mM DTT, 0.2 mg/ml BSA, 0.01% CHAPS, 50 μM Calcium, and 5 μM TPENFinal concentrations: 5 nM hPAD4 enzyme, 250 μM BAEE, and 0.5% DMSOTotal incubation time: 30 mins compound and enzyme preincubation at 37° C., 90 min enzyme/substrate reaction, 30 min reaction with phenyl glyoxal at 37° C.Stop solution: 40 μl 5% TCA in ACN0.13 μL of compound solution was added to 13 μL of 10 nM PAD4 in assay buffer. After 30 min 13 μl of 500 μM of BAEE was added in 25 mM hepes, pH 7.5, 5 mM NaCl, 1 mM DTT, 0.2 mg/ml BSA, 0.01% CHAPS, 50 μM Calcium, 5 μM TPEN was added and the reaction incubated for 90 min at 37° C. The enzymatic reaction was quenched by addition of 15 μl of 6.1N TCA, 100% Final Concentration is 20%, 35 μl of 8.5 mM phenyl glyoxal (final concentration 4 mM) is then added and the reaction is incubated for 30 min at 37° C.After 30 minutes the plates are spun down to remove all precipitate. The enzyme reaction was quenched with an equal volume of methanol containing internal standard (modified citrulline). […]

Sequence of Protein-arginine deiminase type-4 (Q9UM07 whole entry): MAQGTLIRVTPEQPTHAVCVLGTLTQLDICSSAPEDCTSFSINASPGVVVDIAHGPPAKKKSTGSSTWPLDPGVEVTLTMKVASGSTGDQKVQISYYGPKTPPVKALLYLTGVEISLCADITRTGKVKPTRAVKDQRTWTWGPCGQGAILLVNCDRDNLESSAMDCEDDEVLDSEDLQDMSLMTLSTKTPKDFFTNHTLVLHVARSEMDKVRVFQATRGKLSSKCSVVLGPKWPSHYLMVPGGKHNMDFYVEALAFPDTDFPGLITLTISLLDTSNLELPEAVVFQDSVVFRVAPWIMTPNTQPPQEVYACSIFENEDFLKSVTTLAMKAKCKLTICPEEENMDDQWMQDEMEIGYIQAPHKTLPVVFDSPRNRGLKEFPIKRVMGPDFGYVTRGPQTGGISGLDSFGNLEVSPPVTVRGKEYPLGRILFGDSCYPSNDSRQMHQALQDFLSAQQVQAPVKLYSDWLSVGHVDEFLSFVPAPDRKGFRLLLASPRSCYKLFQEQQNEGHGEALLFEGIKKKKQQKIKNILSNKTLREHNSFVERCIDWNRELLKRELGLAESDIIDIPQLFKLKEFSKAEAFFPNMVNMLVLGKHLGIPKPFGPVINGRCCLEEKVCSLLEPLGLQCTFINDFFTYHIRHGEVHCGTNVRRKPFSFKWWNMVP

IC50: 35 nM
SMILES: COc1cc(C(=O)N2C[C@H]3CC[C@@H]2[C@@H]3N)cc2nc(-c3cc4scc(-c5cn[nH]c5)c4n3CC3CC3)n(C)c12 [US11981680, Example 39]
